Data: ChEMBL document CHEMBL3822377, “Locking PDK1 in DFG-out conformation through 2-oxo-indole containing molecules: Another tools to fight glioblastoma” (Eur J Med Chem, 2016)
Active and inactive are the calls of the source. No cut-off for these calls is given here.

How the values were obtained:
[1] = biological target: Serine/threonine-protein kinase B-raf (Homo sapiens) (UniProt P15056); experiment: Inhibition of GST-tagged full-length human BRAF expressed in baculovirus system at 100 nM by Z-lyte assay
[2] = biological target: Inhibitor of nuclear factor kappa-B kinase subunit alpha (Homo sapiens) (UniProt O15111); experiment: Inhibition of His-tagged full-length human IKKalpha expressed in baculovirus system at 100 nM by adapta assay
[3] = biological target: G protein-coupled receptor kinase 5 (Homo sapiens) (UniProt P34947); experiment: Inhibition of GST-tagged full-length human recombinant GRK5 expressed in baculovirus system at 100 nM by Z-lyte assay
[4] = biological target: Tyrosine-protein kinase ABL1 (Homo sapiens) (UniProt P00519); experiment: Inhibition of His-tagged full-length human ABL1 expressed in baculovirus system at 100 nM by Z-lyte assay
[5] = biological target: Serine/threonine-protein kinase Chk2 (Homo sapiens) (UniProt O96017); experiment: Inhibition of His-tagged full-length human CHEK2 expressed in baculovirus system at 100 nM by Z-lyte assay
Chain of Serine/threonine-protein kinase Chk2 (Homo sapiens) (O96017 whole entry): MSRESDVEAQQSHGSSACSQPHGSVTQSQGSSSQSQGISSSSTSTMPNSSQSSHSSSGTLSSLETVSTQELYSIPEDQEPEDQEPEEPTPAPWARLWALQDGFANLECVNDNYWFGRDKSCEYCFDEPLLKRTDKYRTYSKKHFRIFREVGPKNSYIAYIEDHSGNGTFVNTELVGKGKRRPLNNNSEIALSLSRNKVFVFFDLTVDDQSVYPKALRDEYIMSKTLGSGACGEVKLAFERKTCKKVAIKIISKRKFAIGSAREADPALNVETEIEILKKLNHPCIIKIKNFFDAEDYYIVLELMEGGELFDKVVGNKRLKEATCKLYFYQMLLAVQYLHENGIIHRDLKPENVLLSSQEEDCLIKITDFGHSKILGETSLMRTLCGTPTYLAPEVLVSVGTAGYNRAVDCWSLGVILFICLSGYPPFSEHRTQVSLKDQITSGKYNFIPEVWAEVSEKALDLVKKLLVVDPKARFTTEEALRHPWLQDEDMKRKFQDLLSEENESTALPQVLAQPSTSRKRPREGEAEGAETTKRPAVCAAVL

[6] = biological target: Casein kinase II subunit alpha' (Homo sapiens) (UniProt P19784); experiment: Inhibition of GST-tagged full-length human recombinant CSNK2A2 expressed in baculovirus system at 100 nM by Z-lyte assay
Chain of Casein kinase II subunit alpha' (Homo sapiens) (P19784 whole entry, looked up): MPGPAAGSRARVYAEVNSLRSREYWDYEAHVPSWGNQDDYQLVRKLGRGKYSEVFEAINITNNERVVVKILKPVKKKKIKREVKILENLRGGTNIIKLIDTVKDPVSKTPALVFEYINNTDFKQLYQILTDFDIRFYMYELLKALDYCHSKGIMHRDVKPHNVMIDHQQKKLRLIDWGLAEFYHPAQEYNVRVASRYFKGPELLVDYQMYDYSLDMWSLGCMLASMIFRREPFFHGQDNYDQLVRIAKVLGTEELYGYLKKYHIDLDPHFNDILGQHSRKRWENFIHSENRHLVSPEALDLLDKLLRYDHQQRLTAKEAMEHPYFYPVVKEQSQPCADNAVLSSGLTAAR

[7] = biological target: Tyrosine-protein kinase Lck (Homo sapiens) (UniProt P06239); experiment: Inhibition of His-tagged full-length human LCK expressed in baculovirus system at 100 nM by Z-lyte assay
Chain of Tyrosine-protein kinase Lck (Homo sapiens) (P06239 2-509 limits assumed): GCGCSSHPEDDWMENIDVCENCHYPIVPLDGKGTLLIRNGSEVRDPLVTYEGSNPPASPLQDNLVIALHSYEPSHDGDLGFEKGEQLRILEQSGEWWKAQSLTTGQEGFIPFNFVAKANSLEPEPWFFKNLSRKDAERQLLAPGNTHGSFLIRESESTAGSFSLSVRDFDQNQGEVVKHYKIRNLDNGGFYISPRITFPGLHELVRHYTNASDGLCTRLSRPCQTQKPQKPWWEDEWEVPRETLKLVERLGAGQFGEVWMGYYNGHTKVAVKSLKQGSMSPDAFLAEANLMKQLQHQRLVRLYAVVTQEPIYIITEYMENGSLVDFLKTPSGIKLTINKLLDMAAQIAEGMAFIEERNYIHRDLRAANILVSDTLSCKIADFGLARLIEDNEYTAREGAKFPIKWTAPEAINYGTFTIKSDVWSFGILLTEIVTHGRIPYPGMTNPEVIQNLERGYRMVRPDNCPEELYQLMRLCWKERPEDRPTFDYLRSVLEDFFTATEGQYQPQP

[8] = biological target: T1, 3-phosphoinositide-dependent protein kinase 1 (Homo sapiens) (UniProt O15530); experiment: Inhibition of PDK1-mediated cell migration in human U87MG cells at 10 uM […] measured at 6 to 24 hrs by scratch wound assay; assay type: cell-based; conditions: U-87MG ATCC
T1 sequence (whole entry): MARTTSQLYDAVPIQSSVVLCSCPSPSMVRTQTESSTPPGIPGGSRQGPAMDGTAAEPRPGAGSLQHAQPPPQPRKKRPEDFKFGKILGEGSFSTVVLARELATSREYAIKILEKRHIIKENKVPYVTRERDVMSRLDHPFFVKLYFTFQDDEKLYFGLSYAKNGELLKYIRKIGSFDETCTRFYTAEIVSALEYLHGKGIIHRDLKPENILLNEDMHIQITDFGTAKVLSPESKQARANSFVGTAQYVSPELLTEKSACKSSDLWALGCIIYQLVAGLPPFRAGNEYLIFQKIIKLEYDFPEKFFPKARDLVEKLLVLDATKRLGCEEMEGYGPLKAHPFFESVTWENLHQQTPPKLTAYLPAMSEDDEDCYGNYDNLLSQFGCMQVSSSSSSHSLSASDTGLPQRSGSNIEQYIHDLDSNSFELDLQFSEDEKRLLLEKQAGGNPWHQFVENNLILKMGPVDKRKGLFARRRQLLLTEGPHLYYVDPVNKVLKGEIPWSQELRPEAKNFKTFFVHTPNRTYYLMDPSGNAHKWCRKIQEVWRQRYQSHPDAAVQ

[9] = biological target: Proto-oncogene tyrosine-protein kinase Src (Homo sapiens) (UniProt P12931); experiment: Inhibition of His-tagged full-length recombinant human SRC expressed in baculovirus system at 100 nM by Z-lyte assay
Chain of Proto-oncogene tyrosine-protein kinase Src (Homo sapiens) (P12931 2-536 limits assumed): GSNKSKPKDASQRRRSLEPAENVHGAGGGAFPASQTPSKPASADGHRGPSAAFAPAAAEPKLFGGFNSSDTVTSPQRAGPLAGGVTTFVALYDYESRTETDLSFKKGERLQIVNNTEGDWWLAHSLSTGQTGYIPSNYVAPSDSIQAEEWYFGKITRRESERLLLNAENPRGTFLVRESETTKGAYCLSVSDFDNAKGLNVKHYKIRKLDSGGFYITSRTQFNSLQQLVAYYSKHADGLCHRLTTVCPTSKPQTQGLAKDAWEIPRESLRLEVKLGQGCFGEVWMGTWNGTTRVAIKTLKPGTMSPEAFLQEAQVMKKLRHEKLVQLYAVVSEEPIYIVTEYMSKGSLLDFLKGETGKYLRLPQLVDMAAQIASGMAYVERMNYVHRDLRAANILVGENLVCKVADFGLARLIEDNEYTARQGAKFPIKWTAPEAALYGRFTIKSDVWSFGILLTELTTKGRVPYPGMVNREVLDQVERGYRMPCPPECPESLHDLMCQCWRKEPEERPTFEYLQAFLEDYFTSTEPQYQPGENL

[10] = biological target: Protein kinase C epsilon type (Homo sapiens) (UniProt Q02156); experiment: Inhibition of full-length recombinant human PRKCE expressed in baculovirus system at 100 nM by Z-lyte assay
[11] = biological target: Glycogen synthase kinase-3 beta (Homo sapiens) (UniProt P49841); experiment: Inhibition of His-tagged full-length recombinant human GSK3 beta expressed in baculovirus system at 100 nM by Z-lyte assay
[12] = biological target: Protein kinase C beta type (Homo sapiens) (UniProt P05771); experiment: Inhibition of full-length human PRKCB1 expressed in baculovirus system at 100 nM by Z-lyte assay
[13] = biological target: Interleukin-1 receptor-associated kinase 4 (Homo sapiens) (UniProt Q9NWZ3); experiment: Inhibition of His-tagged full-length human IRAK4 expressed in baculovirus system at 100 nM by Z-lyte assay
Chain of Interleukin-1 receptor-associated kinase 4 (Homo sapiens) (Q9NWZ3 whole entry): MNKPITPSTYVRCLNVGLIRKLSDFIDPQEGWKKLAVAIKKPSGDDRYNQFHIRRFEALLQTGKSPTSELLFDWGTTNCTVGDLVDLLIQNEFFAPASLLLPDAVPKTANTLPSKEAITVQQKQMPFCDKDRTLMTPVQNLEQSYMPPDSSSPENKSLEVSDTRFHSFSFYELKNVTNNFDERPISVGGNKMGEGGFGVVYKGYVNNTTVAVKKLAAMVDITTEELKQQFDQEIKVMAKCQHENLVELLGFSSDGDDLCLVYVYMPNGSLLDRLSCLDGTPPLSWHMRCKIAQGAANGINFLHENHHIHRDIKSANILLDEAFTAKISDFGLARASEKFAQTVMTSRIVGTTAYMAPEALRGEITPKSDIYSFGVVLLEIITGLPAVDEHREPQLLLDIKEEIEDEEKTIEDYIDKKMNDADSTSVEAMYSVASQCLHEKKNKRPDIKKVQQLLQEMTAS

[14] = biological target: Aurora kinase A (Homo sapiens) (UniProt O14965); experiment: Inhibition of His-tagged full-length recombinant human Aurora A expressed in baculovirus system at 100 nM by Z-lyte assay
[15] = biological target: AMP-activated protein kinase, AMPK (Homo sapiens) (UniProt P54646+O43741+P54619+Q9UGJ0+Q9Y478+Q13131+Q9UGI9); experiment: Inhibition of GST/His-tagged full-length human recombinant AMPK A1/B1/G1 expressed in baculovirus system at 100 nM by Z-lyte assay
[16] = biological target: Cyclin-dependent kinase 5/CDK5 activator 1 (Homo sapiens) (UniProt Q00535+Q15078); experiment: Inhibition of GST/His-tagged full-length human CDK5/p25 expressed in baculovirus system at 100 nM by Z-lyte assay
Chain of Cyclin-dependent kinase 5/CDK5 activator 1 (Homo sapiens) (Q00535 whole entry): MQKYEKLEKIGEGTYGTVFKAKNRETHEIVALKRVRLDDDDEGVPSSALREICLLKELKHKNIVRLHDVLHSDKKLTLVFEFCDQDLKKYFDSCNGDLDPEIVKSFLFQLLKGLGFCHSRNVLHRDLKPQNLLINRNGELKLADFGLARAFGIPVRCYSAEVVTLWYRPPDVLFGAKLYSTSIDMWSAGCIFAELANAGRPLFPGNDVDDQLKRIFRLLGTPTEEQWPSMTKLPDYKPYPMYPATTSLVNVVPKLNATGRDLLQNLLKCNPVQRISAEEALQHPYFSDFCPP
Chain of Cyclin-dependent kinase 5/CDK5 activator 1 (Homo sapiens) (Q15078 99-307 partner limits assumed): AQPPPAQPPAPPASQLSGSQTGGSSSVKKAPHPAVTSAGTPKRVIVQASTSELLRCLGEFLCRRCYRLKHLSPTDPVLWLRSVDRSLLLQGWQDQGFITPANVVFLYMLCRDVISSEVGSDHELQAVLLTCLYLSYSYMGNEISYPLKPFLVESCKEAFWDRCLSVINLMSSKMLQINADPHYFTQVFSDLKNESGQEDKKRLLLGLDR

[17] = biological target: Tyrosine-protein kinase BTK (Homo sapiens) (UniProt Q06187); experiment: Inhibition of His-tagged full-length human BTK expressed in baculovirus system at 100 nM by Z-lyte assay
Chain of Tyrosine-protein kinase BTK (Homo sapiens) (Q06187 whole entry): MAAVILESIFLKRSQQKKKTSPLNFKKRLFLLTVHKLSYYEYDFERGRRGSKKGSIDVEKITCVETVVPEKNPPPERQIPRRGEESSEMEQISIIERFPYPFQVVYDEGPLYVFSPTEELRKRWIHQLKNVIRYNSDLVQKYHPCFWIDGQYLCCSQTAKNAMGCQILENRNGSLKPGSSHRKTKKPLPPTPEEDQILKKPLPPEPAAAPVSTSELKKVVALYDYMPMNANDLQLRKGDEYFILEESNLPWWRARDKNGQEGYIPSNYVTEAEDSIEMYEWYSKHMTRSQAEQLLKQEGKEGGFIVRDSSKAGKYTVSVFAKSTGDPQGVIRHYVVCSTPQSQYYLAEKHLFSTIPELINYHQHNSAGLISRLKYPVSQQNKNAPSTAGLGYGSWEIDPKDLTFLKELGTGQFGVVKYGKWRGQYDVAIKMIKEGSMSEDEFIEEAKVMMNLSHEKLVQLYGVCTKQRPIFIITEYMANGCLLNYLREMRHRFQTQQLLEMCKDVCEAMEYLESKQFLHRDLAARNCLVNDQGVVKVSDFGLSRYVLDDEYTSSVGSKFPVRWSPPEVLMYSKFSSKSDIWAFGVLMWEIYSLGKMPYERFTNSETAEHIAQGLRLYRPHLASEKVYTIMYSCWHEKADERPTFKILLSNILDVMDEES

[18] = biological target: CDK7/Cyclin H/MNAT1 (Homo sapiens) (UniProt P51946+P50613+P51948); experiment: Inhibition of His-tagged full-length human recombinant CDK7/Cyclin H/MNAT1 expressed in baculovirus system at 100 nM by adapta assay
[19] = biological target: Serine/threonine-protein kinase MRCK alpha (Homo sapiens) (UniProt Q5VT25); experiment: Inhibition of His-tagged human CDC42 BPA expressed in baculovirus system at 100 nM by Z-lyte assay
[20] = Induction of apoptosis in human GSC cells assessed as live cells by measuring phosphatidylserine externalisation at 10 uM after 7 days by AnnexinV/FITC staining-based flow cytometry (reference value: 87.49%); assay type: functional
[21] = biological target: MAP kinase-activated protein kinase 2 (Homo sapiens) (UniProt P49137); experiment: Inhibition of His-tagged full-length recombinant human MAPKAPK2 expressed in Escherichia coli at 100 nM by Z-lyte assay
Chain of MAP kinase-activated protein kinase 2 (Homo sapiens) (P49137 whole entry, looked up): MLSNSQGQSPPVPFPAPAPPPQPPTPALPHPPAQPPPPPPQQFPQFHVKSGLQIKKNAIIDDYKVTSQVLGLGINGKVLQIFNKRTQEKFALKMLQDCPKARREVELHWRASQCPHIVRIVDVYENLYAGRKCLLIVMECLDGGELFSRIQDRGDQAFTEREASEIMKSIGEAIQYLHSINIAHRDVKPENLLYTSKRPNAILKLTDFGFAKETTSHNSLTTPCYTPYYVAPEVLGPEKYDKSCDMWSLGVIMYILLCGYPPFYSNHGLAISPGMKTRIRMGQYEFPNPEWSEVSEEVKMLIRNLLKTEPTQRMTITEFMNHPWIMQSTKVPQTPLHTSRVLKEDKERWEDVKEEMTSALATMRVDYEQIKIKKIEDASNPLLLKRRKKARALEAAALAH

[22] = biological target: Ribosomal protein S6 kinase beta-1 (Homo sapiens) (UniProt P23443); experiment: Inhibition of catalytic GST-tagged human RPS6KB1 expressed in baculovirus system at 100 nM by Z-lyte assay
Chain of Ribosomal protein S6 kinase beta-1 (Homo sapiens) (P23443 whole entry, looked up): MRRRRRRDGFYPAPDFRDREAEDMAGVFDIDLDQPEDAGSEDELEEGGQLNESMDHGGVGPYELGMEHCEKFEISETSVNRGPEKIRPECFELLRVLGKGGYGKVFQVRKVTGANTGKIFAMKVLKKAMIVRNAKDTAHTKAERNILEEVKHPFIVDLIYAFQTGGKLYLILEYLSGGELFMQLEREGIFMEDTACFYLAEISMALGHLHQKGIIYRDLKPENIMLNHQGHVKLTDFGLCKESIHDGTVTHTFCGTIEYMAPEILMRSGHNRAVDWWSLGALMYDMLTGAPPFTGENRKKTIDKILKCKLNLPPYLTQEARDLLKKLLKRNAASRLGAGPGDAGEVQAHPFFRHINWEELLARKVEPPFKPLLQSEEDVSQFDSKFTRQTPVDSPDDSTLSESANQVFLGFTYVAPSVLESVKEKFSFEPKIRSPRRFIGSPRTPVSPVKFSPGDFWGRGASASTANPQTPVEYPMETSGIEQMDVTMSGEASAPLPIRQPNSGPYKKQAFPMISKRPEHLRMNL

[23] = biological target: Calcium/calmodulin-dependent protein kinase type II subunit alpha (Homo sapiens) (UniProt Q9UQM7); experiment: Inhibition of His-tagged full-length human CaMKII alpha expressed in baculovirus system at 100 nM by Z-lyte assay
[24] = system: U-87 MG; experiment: Induction of apoptosis in human U87MG cells assessed as live cells by measuring phosphatidylserine externalisation at 10 uM after 72 hrs by AnnexinV/FITC staining-based flow cytometry (reference value: 87.05%); assay type: functional, U-87MG ATCC
[25] = system: U-87 MG; experiment: Induction of apoptosis in human U87MG cells assessed as late apoptotic cells by measuring phosphatidylserine externalisation at 10 uM after 72 hrs in presence of 7-amino-actinomysin by AnnexinV/FITC staining-based flow cytometry (reference value: 4.46%); assay type: functional, U-87MG ATCC
[26] = biological target: RAC-beta serine/threonine-protein kinase (Homo sapiens) (UniProt P31751); experiment: Inhibition of His-tagged full-length human AKT2 expressed in baculovirus system at 100 nM by Z-lyte assay
Chain of RAC-beta serine/threonine-protein kinase (Homo sapiens) (P31751 whole entry): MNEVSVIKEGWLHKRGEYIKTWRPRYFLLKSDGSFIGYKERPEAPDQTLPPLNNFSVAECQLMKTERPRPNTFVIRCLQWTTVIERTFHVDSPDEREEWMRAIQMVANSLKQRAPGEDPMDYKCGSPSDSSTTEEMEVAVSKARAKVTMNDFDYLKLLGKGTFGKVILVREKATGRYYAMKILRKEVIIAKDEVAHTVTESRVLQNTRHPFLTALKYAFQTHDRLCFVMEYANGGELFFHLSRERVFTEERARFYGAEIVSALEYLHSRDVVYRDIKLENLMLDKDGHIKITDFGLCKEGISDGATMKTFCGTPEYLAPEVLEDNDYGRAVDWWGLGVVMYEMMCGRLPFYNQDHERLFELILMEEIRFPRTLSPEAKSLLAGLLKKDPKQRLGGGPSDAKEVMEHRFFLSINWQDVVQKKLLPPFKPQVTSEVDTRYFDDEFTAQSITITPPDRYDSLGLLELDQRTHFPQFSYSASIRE

O=C(CNC(=O)c1cccn(Cc2ccc(F)c(F)c2)c1=O)Nc1ccc2c(c1)/C(=C/c1cnc[nH]1)C(=O)N2
inhibition [1]: 17%
inhibition [2]: 3%
inhibition [3]: -4%
inhibition [4]: 14%
inhibition [5]: 4%
inhibition [6]: 3%
inhibition [7]: 9%
inhibition [8]: Active
inhibition [9]: 7%
inhibition [10]: 3%
inhibition [11]: 24%
inhibition [12]: -10%
inhibition [13]: -6%
inhibition [14]: 38%
inhibition [15]: 7%
inhibition [16]: -8%
inhibition [17]: -3%
inhibition [18]: 1%
inhibition [19]: -3%
Activity [20]: 58.6%
inhibition [21]: 0%
inhibition [22]: -6%
inhibition [23]: 0%
Activity [24]: 76.41%
Activity [25]: 5.65%
inhibition [26]: -4%
